Results as given in PubChem BioAssay AID1919001 (Molecular Pharmacology Branch, DTP, NCI, 2023).

Test system: 699152-130-R-J1-PDC complex spheroid growth
Assay: Anticancer human tumor 699152-130-R-J1-PDC patient-derived pancreatic carcinoma cell line growth inhibition [AhR]
Conditions: for viability, T/C: stronger effect = lower value
Procedure, shortened: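 Complex tumor spheroids co-cultured with HUVEC and human MSC stroma; AhR antagonists tested in combination with standard-of-care and investigational agents. Top concentration at or near clinical Cmax (else 10 microM), half-log dilutions; growth expressed as percent test/control.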

[1] = curve of first compound, second compound 0.1 µM
[2] = curve of first compound, second compound 0.316 µM
[3] = curve of first compound, second compound 1 µM
[4] = curve of first compound, second compound 3.16 µM
[5] = curve of first compound, second compound 10 µM
[6] = second compound 0.1 µM, first compound 0.000949 µM
[7] = second compound 0.1 µM, first compound 0.003 µM
[8] = second compound 0.1 µM, first compound 0.00949 µM
[9] = second compound 0.1 µM, first compound 0.03 µM
[10] = second compound 0.1 µM, first compound 0.0949 µM
[11] = second compound 0.1 µM, first compound 0.3 µM
[12] = second compound 0.316 µM, first compound 0.000949 µM
[13] = second compound 0.316 µM, first compound 0.003 µM
[14] = second compound 0.316 µM, first compound 0.00949 µM
[15] = second compound 0.316 µM, first compound 0.03 µM
[16] = second compound 0.316 µM, first compound 0.0949 µM
[17] = second compound 0.316 µM, first compound 0.3 µM
[18] = second compound 1 µM, first compound 0.000949 µM
[19] = second compound 1 µM, first compound 0.003 µM
[20] = second compound 1 µM, first compound 0.00949 µM
[21] = second compound 1 µM, first compound 0.03 µM
[22] = second compound 1 µM, first compound 0.0949 µM
[23] = second compound 1 µM, first compound 0.3 µM
[24] = second compound 3.16 µM, first compound 0.000949 µM
[25] = second compound 3.16 µM, first compound 0.003 µM
[26] = second compound 3.16 µM, first compound 0.00949 µM
[27] = second compound 3.16 µM, first compound 0.03 µM
[28] = second compound 3.16 µM, first compound 0.0949 µM
[29] = second compound 3.16 µM, first compound 0.3 µM
[30] = second compound 10 µM, first compound 0.000949 µM
[31] = second compound 10 µM, first compound 0.003 µM
[32] = second compound 10 µM, first compound 0.00949 µM
[33] = second compound 10 µM, first compound 0.03 µM
[34] = second compound 10 µM, first compound 0.0949 µM
[35] = second compound 10 µM, first compound 0.3 µM
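Also: compound exposure lasted 7 days after spheroids had grown for 3 days.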

CC(C)CC(NC(=O)C(Cc1ccccc1)NC(=O)c1cnccn1)B(O)O (stereo unspecified) + CC(CO)NC(=O)c1cc(-c2ccc(Cl)cc2)nn(-c2cnn(C)c2)c1=O
IC50 [1]: 5.84 nM | IC50 [2]: 5.84 nM | IC50 [3]: 5.39 nM | IC50 [4]: 5.46 nM | IC50 [5]: 5.13 nM | viability, T/C [6]: 91.3% | viability, T/C [7]: 102% | viability, T/C [8]: 16% | viability, T/C [9]: 1.65% | viability, T/C [10]: 10.5% | viability, T/C [11]: 0.88% | viability, T/C [12]: 92.5% | viability, T/C [13]: 115% | viability, T/C [14]: 10.9% | viability, T/C [15]: 0.58% | viability, T/C [16]: 0.4% | viability, T/C [17]: 0.53% | viability, T/C [18]: 100% | viability, T/C [19]: 86.1% | viability, T/C [20]: 15.2% | viability, T/C [21]: 3.08% | viability, T/C [22]: 0.35% | viability, T/C [23]: 0.5% | viability, T/C [24]: 80.9% | viability, T/C [25]: 92.5% | viability, T/C [26]: 16.2% | viability, T/C [27]: 1.89% | viability, T/C [28]: 1.77% | viability, T/C [29]: 5.12% | viability, T/C [30]: 74.7% | viability, T/C [31]: 90.8% | viability, T/C [32]: 12.6% | viability, T/C [33]: 1.86% | viability, T/C [34]: 0.41% | viability, T/C [35]: 0.56%

Nc1ccn(C2OC(CO)C(O)C2(F)F)c(=O)n1 (stereo unspecified) + Cc1ccccc1N=Nc1ccc(NC(=O)c2ccnn2C)c(C)c1
IC50 [1]: 156 nM | IC50 [2]: 470 nM | IC50 [3]: 390 nM | IC50 [4]: 458 nM | IC50 [5]: 1740 nM | viability, T/C (second compound 0.1 µM, first compound 0.0316 µM): 52.3% | viability, T/C (second compound 0.1 µM, first compound 0.1 µM): 55.2% | viability, T/C (second compound 0.1 µM, first compound 0.316 µM): 43.9% | viability, T/C (second compound 0.1 µM, first compound 1 µM): 45.8% | viability, T/C (second compound 0.1 µM, first compound 3.16 µM): 39.6% | viability, T/C (second compound 0.1 µM, first compound 10 µM): 33.9% | viability, T/C (second compound 0.316 µM, first compound 0.0316 µM): 57.9% | viability, T/C (second compound 0.316 µM, first compound 0.1 µM): 58.4% | viability, T/C (second compound 0.316 µM, first compound 0.316 µM): 52.1% | viability, T/C (second compound 0.316 µM, first compound 1 µM): 46.8% | viability, T/C (second compound 0.316 µM, first compound 3.16 µM): 40.1% | viability, T/C (second compound 0.316 µM, first compound 10 µM): 41.6% | viability, T/C (second compound 1 µM, first compound 0.0316 µM): 68.2% | viability, T/C (second compound 1 µM, first compound 0.1 µM): 58.7% | viability, T/C (second compound 1 µM, first compound 0.316 µM): 50.2% | viability, T/C (second compound 1 µM, first compound 1 µM): 46.4% | viability, T/C (second compound 1 µM, first compound 3.16 µM): 44.2% | viability, T/C (second compound 1 µM, first compound 10 µM): 43.1% | viability, T/C (second compound 3.16 µM, first compound 0.0316 µM): 58.6% | viability, T/C (second compound 3.16 µM, first compound 0.1 µM): 57.1% | viability, T/C (second compound 3.16 µM, first compound 0.316 µM): 48.4% | viability, T/C (second compound 3.16 µM, first compound 1 µM): 48.3% | viability, T/C (second compound 3.16 µM, first compound 3.16 µM): 44.5% | viability, T/C (second compound 3.16 µM, first compound 10 µM): 39.5% | viability, T/C (second compound 10 µM, first compound 0.0316 µM): 74.9% | viability, T/C (second compound 10 µM, first compound 0.1 µM): 61.9% | viability, T/C (second compound 10 µM, first compound 0.316 µM): 56.2% | viability, T/C (second compound 10 µM, first compound 1 µM): 51.8% | viability, T/C (second compound 10 µM, first compound 3.16 µM): 48.5% | viability, T/C (second compound 10 µM, first compound 10 µM): 47.2%

Cc1ccccc1N=Nc1ccc(NC(=O)c2ccnn2C)c(C)c1
IC50 (compound alone, run of 07/26/2022): > 10000 nM

O=C(C=Cn1cnc(-c2cc(C(F)(F)F)cc(C(F)(F)F)c2)n1)NNc1cnccn1 + Cc1cncc(-c2nc(NCCc3c[nH]c4ccccc34)c3ncn(C(C)C)c3n2)c1
IC50 [1]: > 3000 nM | IC50 [2]: > 3000 nM | IC50 [3]: > 3000 nM | IC50 [4]: > 3000 nM | IC50 [5]: < 9.49 nM | viability, T/C [8]: 97.5% | viability, T/C [9]: 97.4% | viability, T/C [10]: 86.4% | viability, T/C [11]: 81.4% | viability, T/C (second compound 0.1 µM, first compound 0.949 µM): 69.4% | viability, T/C (second compound 0.1 µM, first compound 3 µM): 67.8% | viability, T/C [14]: 83.2% | viability, T/C [15]: 92% | viability, T/C [16]: 89.2% | viability, T/C [17]: 76.3% | viability, T/C (second compound 0.316 µM, first compound 0.949 µM): 76.8% | viability, T/C (second compound 0.316 µM, first compound 3 µM): 74.2% | viability, T/C [20]: 102% | viability, T/C [21]: 111% | viability, T/C [22]: 92.9% | viability, T/C [23]: 87.1% | viability, T/C (second compound 1 µM, first compound 0.949 µM): 79.7% | viability, T/C (second compound 1 µM, first compound 3 µM): 72.2% | viability, T/C [26]: 118% | viability, T/C [27]: 113% | viability, T/C [28]: 93.9% | viability, T/C [29]: 97.2% | viability, T/C (second compound 3.16 µM, first compound 0.949 µM): 76.2% | viability, T/C (second compound 3.16 µM, first compound 3 µM): 70.5% | viability, T/C [32]: 20.1% | viability, T/C [33]: 22.6% | viability, T/C [34]: 25.2% | viability, T/C [35]: 26.4% | viability, T/C (second compound 10 µM, first compound 0.949 µM): 35% | viability, T/C (second compound 10 µM, first compound 3 µM): 32.9%

CCc1c2c(nc3ccc(O)cc13)-c1cc3c(c(=O)n1C2)COC(=O)[C@]3(O)CC + Cc1ccccc1N=Nc1ccc(NC(=O)c2ccnn2C)c(C)c1
IC50 [1]: 12.8 nM | IC50 [2]: 15 nM | IC50 [3]: 12.3 nM | IC50 [4]: 22.3 nM | IC50 [5]: 44.4 nM | viability, T/C [6]: 87.4% | viability, T/C [7]: 86.4% | viability, T/C [8]: 52.5% | viability, T/C [9]: 46.3% | viability, T/C [10]: 46.9% | viability, T/C [11]: 34.1% | viability, T/C [12]: 103% | viability, T/C [13]: 80% | viability, T/C [14]: 52.2% | viability, T/C [15]: 47.1% | viability, T/C [16]: 41.8% | viability, T/C [17]: 38.9% | viability, T/C [18]: 85% | viability, T/C [19]: 78.2% | viability, T/C [20]: 50.8% | viability, T/C [21]: 45% | viability, T/C [22]: 39.6% | viability, T/C [23]: 34.2% | viability, T/C [24]: 95.7% | viability, T/C [25]: 82% | viability, T/C [26]: 57.2% | viability, T/C [27]: 45.6% | viability, T/C [28]: 42.8% | viability, T/C [29]: 29.7% | viability, T/C [30]: 115% | viability, T/C [31]: 87.5% | viability, T/C [32]: 60.5% | viability, T/C [33]: 51.2% | viability, T/C [34]: 49.9% | viability, T/C [35]: 39.4%
